According to ChEMBL document CHEMBL3297661, “1-Substituted-5-[(3,5-dinitrobenzyl)sulfanyl]-1H-tetrazoles and their isosteric analogs: A new class of selective antitubercular agents active against drug-susceptible and multidrug-resistant mycobacteria” (Eur J Med Chem, 2014):
Converted amounts (≈) assume the structure as drawn.

Key:
[1] = tested on: Mycobacterium tuberculosis; assay: Antimycobacterial activity against Mycobacterium tuberculosis CNCTC My 331/88 after 14 days by micromethod; assay type: functional; settings: CNCTC My 331/88, 336 h
HepG2 = assay: Cytotoxicity against human HepG2 cells assessed as reduction in cell viability after 48 hrs by MTT assay; assay type: cell-based; settings: HepG2, 48 h
[2] = Cytotoxicity against human HuH7 cells assessed as reduction in cell viability after 48 hrs by MTT assay; assay type: cell-based; settings: Huh-7, 48 h
[3] = Cytotoxicity against human HepG2 cells assessed as cell viability at 30 uM after 48 hrs by MTT assay; assay type: cell-based; settings: read-out: Activity
Mycobacterium avium [4] = assay: Antimycobacterial activity against Mycobacterium avium CNCTC My 330/88 after 21 days by micromethod; assay type: functional; settings: CNCTC My 330/88, 504 h
[5] = tested on: Mycobacterium tuberculosis; assay: Antimycobacterial activity against Mycobacterium tuberculosis CNCTC My 331/88 after 21 days by micromethod; assay type: functional; settings: CNCTC My 331/88, 504 h
HeLa = assay: Cytotoxicity against human HeLa cells assessed as reduction in cell viability after 48 hrs by MTT assay; assay type: cell-based
Mycobacterium kansasii [6] = assay: Antimycobacterial activity against Mycobacterium kansasii CNCTC My 235/80 after 7 days by micromethod; assay type: functional; settings: CNCTC My 235/80, 168 h
[7] = Cytotoxicity against MDCK2 cells assessed as cell viability at 30 uM after 48 hrs by MTT assay; assay type: cell-based, Canis lupus familiaris, MDCK-II; settings: dog, read-out: Activity
Mycobacterium kansasii [8] = assay: Antimycobacterial activity against Mycobacterium kansasii 6509/96 after 7 days by micromethod; assay type: functional; settings: 6509/96, 168 h
[9] = Cytotoxicity against MDCK2 cells assessed as reduction in cell viability after 48 hrs by MTT assay; assay type: cell-based; settings: Canis lupus familiaris, MDCK-II
Mycobacterium kansasii [10] = assay: Antimycobacterial activity against Mycobacterium kansasii 6509/96 after 14 days by micromethod; assay type: functional; settings: 6509/96, 336 h
[11] = Cytotoxicity against human HuH7 cells assessed as cell viability at 30 uM after 48 hrs by MTT assay; assay type: cell-based, Huh-7; settings: read-out: Activity
[12] = Cytotoxicity against human HeLa cells assessed as cell viability at 30 uM after 48 hrs by MTT assay; assay type: cell-based; settings: read-out: Activity
Mycobacterium kansasii [13] = assay: Antimycobacterial activity against Mycobacterium kansasii 6509/96 after 21 days by micromethod; assay type: functional; settings: 6509/96, 504 h
Mycobacterium kansasii [14] = assay: Antimycobacterial activity against Mycobacterium kansasii CNCTC My 235/80 after 21 days by micromethod; assay type: functional; settings: CNCTC My 235/80, 504 h
Mycobacterium kansasii [15] = assay: Antimycobacterial activity against Mycobacterium kansasii CNCTC My 235/80 after 14 days by micromethod; assay type: functional; settings: CNCTC My 235/80, 336 h
Mycobacterium avium [16] = assay: Antimycobacterial activity against Mycobacterium avium CNCTC My 330/88 after 14 days by micromethod; assay type: functional; settings: CNCTC My 330/88, 336 h

SMILES | MIC [1] | IC50 (HepG2) | IC50 [2] | viability at 48 h, 30 µM [3] | MIC (Mycobacterium avium [4]) | MIC [5] | IC50 (HeLa) | MIC (Mycobacterium kansasii [6]) | viability at 48 h, 30 µM [7] | MIC (Mycobacterium kansasii [8]) | IC50 [9] | MIC (Mycobacterium kansasii [10]) | viability at 48 h, 30 µM [11] | viability at 48 h, 30 µM [12] | MIC (Mycobacterium kansasii [13]) | MIC (Mycobacterium kansasii [14]) | MIC (Mycobacterium kansasii [15]) | MIC (Mycobacterium avium [16])
O=[N+]([O-])c1ccc(CSc2nnnn2C2CCCCC2)c([N+](=O)[O-])c1 | 8 µM (≈ 2.92 µg/mL) | 16 µM | > 30 µM | 47% | 32 µM (≈ 11.7 µg/mL) | 16 µM (≈ 5.83 µg/mL) | > 30 µM | 4 µM (≈ 1.46 µg/mL) | 28% | 16 µM (≈ 5.83 µg/mL) | 17 µM | 62 µM (≈ 22.6 µg/mL) | 97% | 61% | 62 µM (≈ 22.6 µg/mL) | 16 µM (≈ 5.83 µg/mL) | 8 µM (≈ 2.92 µg/mL) | 16 µM (≈ 5.83 µg/mL)
COc1ccc(-n2nnnc2[Se]Cc2cc([N+](=O)[O-])cc([N+](=O)[O-])c2)cc1 | 1 µM (≈ 0.435 µg/mL) | 19 µM | > 30 µM | 17% | 32 µM (≈ 13.9 µg/mL) | 1 µM (≈ 0.435 µg/mL) | > 30 µM | 1 µM (≈ 0.435 µg/mL) | 9% | 2 µM (≈ 0.871 µg/mL) | < 7.5 µM | 4 µM (≈ 1.74 µg/mL) | 72% | 78% | 8 µM (≈ 3.48 µg/mL) | 2 µM (≈ 0.871 µg/mL) | 2 µM (≈ 0.871 µg/mL) | 32 µM (≈ 13.9 µg/mL)
CSCc1cc([N+](=O)[O-])cc([N+](=O)[O-])c1 | 62 µM (≈ 14.2 µg/mL) | – | – | – | 250 µM (≈ 57.1 µg/mL) | 125 µM (≈ 28.5 µg/mL) | – | 62 µM (≈ 14.2 µg/mL) | – | 125 µM (≈ 28.5 µg/mL) | – | 250 µM (≈ 57.1 µg/mL) | – | – | 500 µM (≈ 114 µg/mL) | 250 µM (≈ 57.1 µg/mL) | 125 µM (≈ 28.5 µg/mL) | 250 µM (≈ 57.1 µg/mL)
O=[N+]([O-])c1cc(CSc2nnnn2-c2cccc(F)c2)cc([N+](=O)[O-])c1 | 16 µM (≈ 6.02 µg/mL) | – | – | – | 250 µM (≈ 94.1 µg/mL) | 32 µM (≈ 12 µg/mL) | – | 4 µM (≈ 1.51 µg/mL) | – | 4 µM (≈ 1.51 µg/mL) | – | 8 µM (≈ 3.01 µg/mL) | – | – | 8 µM (≈ 3.01 µg/mL) | 8 µM (≈ 3.01 µg/mL) | 4 µM (≈ 1.51 µg/mL) | 250 µM (≈ 94.1 µg/mL)
COc1cc(-n2nnnc2OCc2cc([N+](=O)[O-])cc([N+](=O)[O-])c2)cc(OC)c1OC | 16 µM (≈ 6.92 µg/mL) | – | – | – | 32 µM (≈ 13.8 µg/mL) | 16 µM (≈ 6.92 µg/mL) | – | 8 µM (≈ 3.46 µg/mL) | – | 16 µM (≈ 6.92 µg/mL) | – | 32 µM (≈ 13.8 µg/mL) | – | – | 62 µM (≈ 26.8 µg/mL) | 32 µM (≈ 13.8 µg/mL) | 16 µM (≈ 6.92 µg/mL) | 32 µM (≈ 13.8 µg/mL)
O=[N+]([O-])c1ccc(-n2nnnc2SCc2ccccc2)cc1 | 125 µM (≈ 39.2 µg/mL) | – | – | – | 62 µM (≈ 19.4 µg/mL) | 125 µM (≈ 39.2 µg/mL) | – | 16 µM (≈ 5.01 µg/mL) | – | 16 µM (≈ 5.01 µg/mL) | – | 62 µM (≈ 19.4 µg/mL) | – | – | 62 µM (≈ 19.4 µg/mL) | 32 µM (≈ 10 µg/mL) | 32 µM (≈ 10 µg/mL) | 62 µM (≈ 19.4 µg/mL)
CCN(CC)c1ccc(-n2nnnc2SCc2cc([N+](=O)[O-])cc([N+](=O)[O-])c2)cc1 | 2 µM (≈ 0.859 µg/mL) | – | – | – | 62 µM (≈ 26.6 µg/mL) | 2 µM (≈ 0.859 µg/mL) | – | 4 µM (≈ 1.72 µg/mL) | – | 8 µM (≈ 3.44 µg/mL) | – | 16 µM (≈ 6.87 µg/mL) | – | – | 62 µM (≈ 26.6 µg/mL) | 32 µM (≈ 13.7 µg/mL) | 8 µM (≈ 3.44 µg/mL) | 62 µM (≈ 26.6 µg/mL)
O=[N+]([O-])c1cc(CSc2ccccc2)cc([N+](=O)[O-])c1 | 250 µM (≈ 72.6 µg/mL) | – | – | – | 250 µM (≈ 72.6 µg/mL) | 250 µM (≈ 72.6 µg/mL) | – | 250 µM (≈ 72.6 µg/mL) | – | 500 µM (≈ 145 µg/mL) | – | 500 µM (≈ 145 µg/mL) | – | – | 500 µM (≈ 145 µg/mL) | 250 µM (≈ 72.6 µg/mL) | 250 µM (≈ 72.6 µg/mL) | 250 µM (≈ 72.6 µg/mL)
O=[N+]([O-])c1cc(COc2nnnn2-c2ccc(Br)cc2)cc([N+](=O)[O-])c1 | 2 µM (≈ 0.842 µg/mL) | – | – | – | 125 µM (≈ 52.6 µg/mL) | 4 µM (≈ 1.68 µg/mL) | – | 8 µM (≈ 3.37 µg/mL) | – | 4 µM (≈ 1.68 µg/mL) | – | 16 µM (≈ 6.74 µg/mL) | – | – | 16 µM (≈ 6.74 µg/mL) | 16 µM (≈ 6.74 µg/mL) | 16 µM (≈ 6.74 µg/mL) | 125 µM (≈ 52.6 µg/mL)
COc1ccc(-n2nnnc2SCc2cc(N)cc([N+](=O)[O-])c2)cc1 | 250 µM (≈ 89.6 µg/mL) | – | – | – | 250 µM (≈ 89.6 µg/mL) | 250 µM (≈ 89.6 µg/mL) | – | 250 µM (≈ 89.6 µg/mL) | – | 250 µM (≈ 89.6 µg/mL) | – | 250 µM (≈ 89.6 µg/mL) | – | – | 250 µM (≈ 89.6 µg/mL) | 250 µM (≈ 89.6 µg/mL) | 250 µM (≈ 89.6 µg/mL) | 250 µM (≈ 89.6 µg/mL)
O=[N+]([O-])c1cc(C[Se]c2nnnn2-c2ccccc2)cc([N+](=O)[O-])c1 | 8 µM (≈ 3.24 µg/mL) | – | – | – | 32 µM (≈ 13 µg/mL) | 8 µM (≈ 3.24 µg/mL) | – | 8 µM (≈ 3.24 µg/mL) | – | 16 µM (≈ 6.48 µg/mL) | – | 16 µM (≈ 6.48 µg/mL) | – | – | 32 µM (≈ 13 µg/mL) | 16 µM (≈ 6.48 µg/mL) | 8 µM (≈ 3.24 µg/mL) | 32 µM (≈ 13 µg/mL)
O=[N+]([O-])c1cc(COc2nnnn2-c2ccccc2)cc([N+](=O)[O-])c1 | 2 µM (≈ 0.685 µg/mL) | – | – | – | 125 µM (≈ 42.8 µg/mL) | 4 µM (≈ 1.37 µg/mL) | – | 8 µM (≈ 2.74 µg/mL) | – | 8 µM (≈ 2.74 µg/mL) | – | 16 µM (≈ 5.48 µg/mL) | – | – | 32 µM (≈ 11 µg/mL) | 32 µM (≈ 11 µg/mL) | 16 µM (≈ 5.48 µg/mL) | 125 µM (≈ 42.8 µg/mL)
